Laboratory results published in US9040521B2, “Methods and compositions for modulating tau levels” (THE J. DAVID GLADSTONE INSTITUTES, priority 2009, dated 2015).

What was measured:
[1] = tested on: six other acetyltransferases (serotonin N-acetyltransferase, pCAF, GCN5, Rtt109, Sas, MOZ); details: C646 at 10 μM, cell-free; cited from earlier work
[2] = tested on: AT8-positive p-tau in primary neurons expressing hTauP301L; test: p-tau in primary neurons expressing hTauP301L; type: cell-based; details: 20 μM, DIV=12
Method: (§1) Primary cultures were established from cortices of Sprague-Dawley rat pups (Charles River Laboratories) or SIRT1^F/F mice on postnatal day 0 or 1. Purified cells were plated at 160,000 cells/ml in Neurobasal medium supplemented with B27 (Invitrogen) on poly-ornithine coated plates. All treatments were performed at 7-13 DIV in Neurobasal medium supplemented with N2 (Invitrogen) unless noted otherwise.
Lentivirus was generated, purified, and used for infection as described. Chen et al. (2005) supra. Recombinant lentivirus was produced by co-transfection of the shuttle vector (FUGW), two helper plasmids, delta8.9 packaging vector, and VSV-G envelope vector into 293T cells and purified by ultracentrifugation. Viral titers were measured by p24 enzyme-linked immunosorbent assays at the Gladstone-UCSF Laboratory of Clinical Virology.
Cells or human or mouse brain tissues were lysed in RIPA buffer containing protease inhibitor cocktail (Sigma), 1 mM phenylmethyl sulfonyl fluoride (PMSF) (Sigma), phosphatase inhibitor cocktail (Roche), and HDAC inhibitors, including 5 mM nicotinamide (Sigma) and 1 μM trichostatin A (Sigma). […] Supernatants were collected and analyzed by western blot. Bands in immunoblots were visualized by enhanced chemiluminescence (Pierce) and quantified by densitometry and Quantity One 4.0 software (Bio-Rad, Hercules, Calif.).

[3] = tested on: tau acetylation in primary neurons; test: western blot of ac-tau, t-tau and p-tau in primary cortical neurons; type: cell-based, rat
Method: as §1
(§2) Cells or human or mouse brain tissues were lysed in RIPA buffer containing protease inhibitor cocktail (Sigma), 1 mM phenylmethyl sulfonyl fluoride (PMSF) (Sigma), phosphatase inhibitor cocktail (Roche), and HDAC inhibitors, including 5 mM nicotinamide (Sigma) and 1 μM trichostatin A (Sigma). After sonication, lysates from human or mouse brain tissues were centrifuged at 170,000 g at 4° C. for 15 min and at 18,000 g at 4° C. for 10 min. Supernatants were collected and analyzed by western blot. Bands in immunoblots were visualized by enhanced chemiluminescence (Pierce) and quantified by densitometry and Quantity One 4.0 software (Bio-Rad, Hercules, Calif.).

[4] = tested on: tau transcripts; test: real-time RT-PCR of tau transcripts in primary neurons; type: cell-based, rat; details: treatment for 8 h
Method: as §1

[5] = tested on: turnover of endogenous tau in primary neurons; test: tau turnover in primary neurons treated with cycloheximide; type: cell-based, rat
Method: as §1, §2
It was then directly examined whether enhancing acetylation of tau slows the turnover of endogenous tau. Primary neurons were treated with EX527 to enhance tau acetylation and with cycloheximide (CHX) to inhibit translation of new proteins. […] Consistent with this notion, ac-tau appears to be degraded slower than that of t-tau.

[6] = tested on: tau ubiquitination in HEK293T cells; test: in vivo ubiquitination assay in HEK293T cells; type: cell-based, human
Method: Procedures were modified from a published study. Oh et al. (2009) Nat Cell Biol 11:295. HEK293T cells were transfected with expression vectors encoding FLAG-tagged human tau and HA-ubiquitin with or without Myc-SIRT1 (wildtype or H363Y mutant). After 2 h of incubation, cells were treated with EX527, resveratrol, or dimethylsulfoxide (DMSO) in Dulbecco's modified Eagle's medium and incubated for 20 h. MG-132 (20 μM) was added and incubated for 4 h. Cells were lysed in ubiquitination buffer (20 mM Tris-HCl, pH 7.5, 0.1 mM EDTA, 0.2% Triton X-100, 150 mM NaCl, and protease inhibitor cocktail). Supernatant proteins were immunoprecipitated with FLAG M2 agarose beads (Sigma) for 3 h at 4° C. Reactions were washed at least three times with ubiquitination buffer and analyzed by SDS-PAGE and western blot with anti-HA antibody (Cell Signaling Technology).

[7] = EX527 50 μM, rat primary neurons DIV=10

Compound: CC1=NN(c2ccc(C(=O)O)cc2)C(=O)/C1=C\c1ccc(-c2cc(C)c(C)cc2[N+](=O)[O-])o1 [Compound C646]
- inhibition of the six other acetyltransferases [1]: < 10%
- AT8-positive p-tau [2]: diminished
- t-tau levels ([3]; 20 μM, 2 h, primary cortical neurons DIV=9): without affecting
- levels of t-tau ([3]; 20 μM, 8 h, primary rat cortical neurons): remained unchanged
- levels of t-tau ([3]; 20 μM, 20 h, primary cortical neurons): lowered
- tau phosphorylated at serine 202 (AT8-positive p-tau) ([3]; 20 μM, within 2 h, primary cortical neurons): abolished
- ac-tau ([3]; 20 μM, within 2 h, primary cortical neurons DIV=9): eliminated
- levels of ac-tau ([3]; 20 μM, within 8 h, primary rat cortical neurons): drastically reduced
- tau transcripts [4]: did not suppress

Compound: NC(=O)C1CCCc2c1[nH]c1ccc(Cl)cc21 (stereo not shown) [EX527]
- turnover of ac-tau ([5]; 10 μM, CHX, primary neurons): blocked the turnover
- accumulation of ac-tau ([5]; 50 μM, CHX, primary neurons): more pronounced accumulation
- half-life of t-tau (tau turnover) ([5]; 10-50 μM, CHX 0-8 h, rat primary neurons DIV=8): increased the half-life of t-tau in a dose-dependent manner
- degradation of AT8-positive p-tau ([5]; 10-50 μM, CHX, primary neurons): blocked the degradation
- ac-tau levels ([6]; 1-50 μM, HEK293T cells): elevated
- polyubiquitination of tau ([6]; 1-50 μM, HEK293T cells, with MG132): prevented polyubiquitination of tau in a dose-dependent manner
- AT8-positive p-tau [3, 7]: markedly increased
- ac-tau [3, 7]: markedly increased
- levels of ac-tau relative to t-tau [3, 7]: significantly increased
- levels of p-tau relative to t-tau [3, 7]: significantly increased
- t-tau [3, 7]: markedly increased

Compound: Oc1ccc(C=Cc2cc(O)cc(O)c2)cc1 [resveratrol]
- tau ubiquitination ([6]; HEK293T cells transfected with SIRT1 H363Y mutant): not those with H363Y mutant
- tau ubiquitination ([6]; HEK293T cells transfected with wildtype SIRT1): significantly increased
